Patent US5354862A, “Preparation and the use of halopropargylated cyclic quaternary ammonium compounds as antimicrobial agents” (Rohm and Haas Company, priority 1993, dated 1994)
Like-named read-outs stand apart in the source and are kept apart here.

Legend:
Test in all cases: Broth two-fold serial dilution MIC test
[1] = tested on: Escherichia coli; format: cell-based, Escherichia coli (ATCC 11229); conditions: Ecol
Description: (§1) A minimum inhibitory concentration (MIC) value is obtained using a broth, two-fold serial dilution test performed as follows: A stock solution or dispersion of the test compound, typically at a concentration of 1%, is made in a 5:3:2 solvent solution of acetone. methanol, and water. A volume of the stock solution is dispensed into culture media to give an initial starting test concentration of 500 ppm compound.
(§2) When the test is ready to be done, each vessel in the dilution series, except the first vessel, contains an equal volume of compound free broth. The first vessel contains twice the volume of broth with the starting concentration of test compound. One half of the broth from the first vessel is transferred to the second vessel- After being mixed, one half the resulting volume is removed from the second vessel and transferred to the third vessel. The entire cycle is repeated sufficiently to give a series of concentrations amounting to 500, 250, 125, 63, 31, 16, 8, and 4, 2, 1, 0.5, 0.25 ppm respectively.
(§3) Each vessel is then inoculated with a cell suspension of the appropriate test organism. Bacteria are grown in broth, fungi on agar slants for a time and at a temperature appropriate to the species being tested, and algae are a mixture of green algae and blue-green bacteria grown in a nutrient media. At the end of the growth period, in the case of bacteria, the broth is vortexed to disperse the cells.
(§4) In the case of fungi, the spores are harvested by pipetting water onto the slant and dislodging the spores with a sterile loop. The cell/spore suspension is standardized by controlling incubation time, temperature, and the volume of the diluent. The suspension is then used to inoculate the vessels containing the broth compound.
(§5) The vessels are then incubated at the appropriate temperature. After the incubation, the vessels are examined for growth/no growth. The minimum inhibitory concentration (MIC) is defined as the lowest concentration of compound that results in complete inhibition of growth of the test organism.

[2] = tested on: Staphylococcus aureus; format: cell-based, Staphylococcus aureus (ATCC 6538); conditions: Saur
Description: as §1, §2, §3, §4, §5
2. Staphylococcus aureus

[3] = tested on: Pseudomonas aeruginosa; format: cell-based, Pseudomonas aeruginosa (ATCC 15442); conditions: Psae
Description: as §1, §2, §3, §4, §5
1. Pseudomonas aeruginosa

[4] = tested on: Aspergillus niger; format: cell-based, Aspergillus niger (ATCC 6275); conditions: Anig, TSB media
Description: as §1, §2, §3, §4, §5
4. Aspergillus niger 6275 Anig

[5] = Escherichia coli, Table 2, TSB media, read-out: MIC
[6] = Staphylococcus aureus, Table 2, M9G media, read-out: MIC
[7] = Staphylococcus aureus, Table 2, TSB media, read-out: MIC
[8] = Pseudomonas aeruginosa, Table 2, M9G media, read-out: MIC
[9] = Pseudomonas aeruginosa, Table 2, TSB media, read-out: MIC
[10] = Aspergillus niger, Table 2, read-out: MIC
[11] = Escherichia coli, Table 2, M9G media, read-out: MIC

| SMILES | MIC [1, 5] [µg/mL] | MIC [2, 6] [µg/mL] | MIC [2, 7] [µg/mL] | MIC [3, 8] [µg/mL] | MIC [3, 9] [µg/mL] | MIC [4, 10] [µg/mL] | MIC ([1]; Table 2, M9G media) [ppm] | MIC ([1]; Table 2, TSB media) [ppm] | MIC ([2]; Table 2, M9G media) [ppm] | MIC ([2]; Table 2, TSB media) [ppm] | MIC ([3]; Table 2, M9G media) [ppm] | MIC ([3]; Table 2, TSB media) [ppm] | MIC ([4]; Table 2) [ppm] | other results |
| --- | --- | --- | --- | --- | --- | --- | --- | --- | --- | --- | --- | --- | --- | --- |
| OCCCCCCCC[N+]1(CC#CI)CCCCC1 [Compound 23, 1-(8-hydroxyoctyl)-1-(3-iodopropargyl)-1-piperidinium 4-methylbenzenesulfonate] | > 500 | 63 | 250 | > 500 | > 500 | > 500 | – | – | – | – | – | – | – | – |
| OCCCCCCC[N+]1(CC#CI)CCCCC1 [Compound 24, 1-(7-hydroxyheptyl)-1-(3-iodopropargyl)-piperidinium-4methylbenzenesulfonate] | > 500 | 63 | 500 | > 500 | > 500 | > 500 | – | – | – | – | – | – | – | – |
| CCCCCCCCCCCCCCCC[N+]1(CC#CI)CCCCC1 [Compound 26, 1-(hexadecyl)-1-(3-iodopropargyl)-piperidinium 4-methylbenzenesulfonate] | – | – | – | – | – | 16 | 4 | 4 | 0.25 | 0.25 | 4 | 16 | – | – |
| OCCCCCCCCCCCC[N+]1(CC#CI)CCCCCC1 [Compound 27, 1-(12-hydroxydodecyl)-1-(3-iodopropargyl)-hexamethyleneiminium 4-methylbenzenesulfonate] | 250 | 16 | 32 | > 250 | > 250 | 32 | – | – | – | – | – | – | – | – |
| CCCCCCCCCCCCCC[N+]1(CC#CI)CCOCC1 [Compound 28, 4-tetradecyl-4-(3-iodopropargyl)-morpholinium 4-methylbenzenesulfonate] | – | 0.25 | – | – | – | – | 1 | 2 | – | 0.25 | 4 | 4 | 8 | – |
| C[N+]1(CC#CI)CCOCC1 [Compound 29, 4-methyl-4-(3-iodopropargl)-morpholinium 4-methylbenzenesulfonate] | 125 | 500 | 500 | 500 | 500 | 500 | – | – | – | – | – | – | – | MIC [1, 11]: 250 µg/mL |
| CCCCCCCCCCCC[N+]1(CC#CI)CCCC1 [Compound 30, 1-dodecyl-1-(3-iodopropargyl)-pyrrolidinium benzenesulfonate] | – | – | – | – | – | – | 2 | 16 | 1 | 1 | 63 | 63 | 1 | – |
| CCCCCCCCCCCCC[N+]1(CC#CI)CCCC1 [Compound 31, 1-tridecyl-1-(3-iodopropargyl)-pyrrolidinium benzenesulfonate] | – | – | – | – | – | – | 1 | 16 | 0.5 | < 0.25 | 32 | 32 | 1 | – |
| CCCCCCCCCCCCCCCC[N+]1(CC#CI)CCCC1 [Compound 32, 1-hexadecyl-1-(3-iodopropargy)-pyrrolidinium benzenesulfonate] | – | – | – | – | – | – | 4 | 16 | < 0.25 | < 0.25 | 32 | 125 | < 0.25 | – |
| CCCCCCCCCCCCCCC[N+]1(CC#CI)CCCC1 [Compound 33, 1-pentadecyl-1-(3-iodopropargyl)-pyrrolidinium benzenesulfonate] | – | – | – | – | – | – | 1 | 2 | < 0.25 | < 0.25 | 8 | 32 | < 0.25 | – |
| CCCCCCCCCCCCCC[N+]1(CC#CI)CCCC1 [Compound 34, 1-tetradecyl-1-(3-iodopropargyl)-pyrrolidinium benzenesulfonate] | – | – | – | – | – | – | 0.25 | 0.25 | < 0.25 | < 0.25 | 2 | 2 | 0.25 | MIC ([1]; Table 3 comparison, M9G media): 0.25 ppm; MIC ([1]; Table 3 comparison, TSB media): 0.25 ppm; MIC ([2]; Table 3 comparison, M9G media): < 0.25 ppm; MIC ([2]; Table 3 comparison, TSB media): < 0.25 ppm; MIC ([3]; Table 3 comparison, M9G media): 2 ppm; MIC ([3]; Table 3 comparison, TSB media): 2 ppm; MIC ([4]; Table 3 comparison): 0.25 ppm |
| CCCCCCCCCCCCCCCC[N+]1(CC#CI)CCCC1 [Compound 35, 1-hexadecyl-1-(3-iodopropargyl)-pyrrolidinium methanesulfonate] | – | – | – | – | – | – | 4 | 63 | 0.5 | 0.25 | > 500 | > 500 | 4 | – |
| CCCCCCCCCCCCC[N+]1(CC#CI)CCCC1 [Compound 36, 1-tridecyl-1-(3-iodopropargyl)-pyrrolidinium methanesulfonate] | – | – | – | – | – | – | 2 | 8 | < 0.25 | < 0.25 | 32 | 63 | 1 | – |
| CCCCCCCCCCCC[N+]1(CC#CI)CCCC1 [Compound 37, 1-dodecyl-1-(3-iodopropargyl)-pyrrolidinium methanesulfonate] | – | – | – | – | – | – | 2 | 16 | 0.5 | 0.5 | 63 | 125 | 0.25 | – |
| CCCCCCCCCCCCCCC[N+]1(CC#CI)CCCC1 [Compound 38, 1-pentadecyl-1-(3-iodopropargyl)-pyrrolidinium methanesulfonate] | – | – | – | – | – | – | 1 | 8 | < 0.25 | < 0.25 | 32 | 63 | 0.5 | – |
| CCCCCCCCCCCCCC[N+]1(CC#CI)CCCC1 [Compound 39, 1-tetradecyl-1-(3-iodopropargyl)-pyrrolidinium methanesulfonate] | – | – | – | – | – | – | 1 | 2 | < 0.25 | < 0.25 | 63 | 63 | 0.5 | – |
| CCCCCCCCCCCCCCCC[N+]1(CC#CI)CCOCC1 [Compound 40, 1-hexadecyl-1-(3-iodopropargyt)-morpholinium methanesulfonate] | – | < 0.25 | 0.5 | 4 | 4 | – | – | < 0.25 | – | – | – | – | < 0.25 | MIC [1, 11]: 0.5 µg/mL |
| CCCCCCCCCCCCCC[N+]1(CC#CI)CC(C)OC(C)C1 (centres unmarked) [Compound 43, 4-tetradecyl-4-(3-iodopropargyl)-2,6-dimethylmorpholinium 4-methylbenzenesulfonate] | 0.5 | < 0.25 | 0.5 | 2 | 4 | 1 | – | – | – | – | – | – | – | MIC [1, 11]: < 0.25 µg/mL |
| CCCCCCCCCCCCCCCC[N+]1(CC#CI)CCCCCC1 [Compound 44, 1-hexadecyl-1-(3-iodopropargyl)-hexamethyleneiminium 4-methylbenzenesulfonate] | 16 | 8 | 4 | 8 | 8 | 8 | – | – | – | – | – | – | – | MIC [1, 11]: 8 µg/mL |
